Assay results taken from PubChem BioAssay (NCI).
Where “and” joins values, the source holds several entries; their conditions need not be identical. Equal values may be shown once.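 Growth conditions: 96-well plates. Treatment: test compound, 48 hours, 5 concentrations. Analysis: linear interpolation between bracketing concentrations; unreached endpoints set to highest concentration. GI50: concentration for 50% inhibition of growth. TGI: concentration producing complete growth inhibition.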 Non-standard residues stand in square brackets, D forms with d. Residues, ends and D or L forms follow the SMILES beside them. ξ: configuration not given here. Pen = CC(C)(S)[C@H](N)C(=O)O; ξL = CC(C)CC(N)C(=O)O

Key:
Experiment in all cases: NCI tumour cell line growth inhibition, 48 h
[1] = tested on: LOX IMVI melanoma
[2] = tested on: M14 melanoma
[3] = tested on: SK-MEL-2 melanoma
[4] = tested on: MOLT-4 leukemia
[5] = tested on: KM12 colon
[6] = tested on: 786-0 renal
[7] = tested on: NCI-H460 lung
[8] = tested on: RXF-631 renal
[9] = tested on: TK-10 renal
[10] = tested on: A549 NSCLC
[11] = tested on: HOP-92 NSCLC
[12] = tested on: NCI-H23 lung
[13] = tested on: UACC-62 melanoma
[14] = tested on: KM20L2 colon
[15] = tested on: ACHN renal
[16] = tested on: IGROV1 ovarian
[17] = tested on: SNB-75 CNS
[18] = tested on: HCT-15 colon
[19] = tested on: HOP-62 NSCLC
[20] = tested on: LXFL 529 NSCLC
[21] = tested on: SK-MEL-5 melanoma
[22] = tested on: K-562 leukemia
[23] = tested on: HCC-2998 colon
[24] = tested on: NCI-H226 lung
[25] = tested on: SNB-19 CNS
[26] = tested on: HCT-116 colon
[27] = tested on: SF-295 CNS
[28] = tested on: DMS 114 small cell lung
[29] = tested on: XF 498 CNS
[30] = tested on: HT29 colon
[31] = tested on: RXF 393 renal
[32] = tested on: CAKI-1 renal
[33] = tested on: UO-31 renal
[34] = tested on: OVCAR-4 ovarian
[35] = tested on: SK-MEL-28 melanoma
[36] = tested on: SK-OV-3 ovarian
[37] = tested on: SW-620 colon
[38] = tested on: COLO 205 colon
[39] = tested on: CCRF-CEM leukemia
[40] = tested on: SF-268 CNS
[41] = tested on: A498 renal
[42] = tested on: EKVX NSCLC
[43] = tested on: SF-539 CNS
[44] = tested on: DLD-1 colon
[45] = tested on: OVCAR-3 ovarian
[46] = tested on: OVCAR-8 ovarian
[47] = tested on: SN12C renal
[48] = tested on: OVCAR-5 ovarian
[49] = tested on: RPMI-8226 leukemia
[50] = tested on: SNB-78 CNS
[51] = tested on: DMS 273 small cell lung
[52] = tested on: MALME-3M melanoma
[53] = tested on: UACC-257 melanoma
[54] = tested on: SR leukemia
[55] = tested on: HOP-18 NSCLC
[56] = tested on: U251 CNS
[57] = tested on: HL-60(TB) leukemia
[58] = tested on: M19-MEL melanoma
[59] = tested on: NCI-H522 lung
[60] = tested on: BT-549 breast
[61] = tested on: P388/ADR leukemia
[62] = tested on: DU-145 prostate
[63] = tested on: HS 578T breast
[64] = tested on: MDA-MB-435
[65] = tested on: MDA-N
[66] = tested on: MDA-MB-231 breast
[67] = tested on: T-47D breast
[68] = tested on: PC-3 prostate
[69] = tested on: P388 leukemia
[70] = tested on: SN12K1 renal

SMILES: Cc1cnoc1/N=C1\C=C(Nc2oncc2C)C(=O)c2ccccc21
- TGI [1]: > 100 µM
- TGI [2]: > 100 µM
- TGI [3]: > 100 µM
- TGI [4]: > 100 µM
- TGI [5]: > 100 µM
- TGI [6]: > 100 µM
- TGI [7]: > 100 µM
- TGI [8]: > 100 µM
- TGI [9]: > 100 µM
- TGI [10]: > 100 µM
- TGI [11]: > 100 µM
- TGI [12]: > 100 µM
- TGI [13]: > 100 µM
- TGI [14]: > 100 µM
- TGI [15]: > 100 µM
- TGI [16]: > 100 µM
- TGI [17]: > 100 µM
- TGI [18]: > 100 µM
- TGI [19]: > 100 µM
- TGI [20]: > 100 µM
- TGI [21]: > 100 µM
- TGI [22]: > 100 µM
- TGI [23]: > 100 µM
- TGI [24]: > 100 µM
- TGI [25]: > 100 µM
- TGI [26]: > 100 µM
- TGI [27]: > 100 µM
- TGI [28]: > 100 µM
- TGI [29]: > 100 µM
- TGI [30]: > 100 µM
- TGI [31]: > 100 µM
- TGI [32]: > 100 µM
- TGI [33]: > 100 µM
- TGI [34]: > 100 µM
- TGI [35]: > 100 µM
- TGI [36]: > 100 µM
- TGI [37]: > 100 µM
- TGI [38]: > 100 µM
- TGI [39]: > 100 µM
- TGI [40]: > 100 µM
- TGI [41]: > 100 µM
- TGI [42]: > 100 µM
- TGI [43]: > 100 µM
- TGI [44]: > 100 µM
- TGI [45]: > 100 µM
- TGI [46]: > 100 µM
- TGI [47]: > 100 µM
- TGI [48]: > 100 µM
- TGI [49]: > 100 µM
- TGI [50]: > 100 µM
- TGI [51]: > 100 µM
- TGI [52]: > 100 µM
- TGI [53]: > 100 µM
- TGI [54]: > 100 µM
- TGI [55]: > 100 µM
- TGI [56]: > 100 µM
- TGI [57]: > 100 µM

SMILES: [N-]=[N+]=NC1C(Cl)C(=O)NC(=O)N1[C@H]1C[C@H](O)[C@@H](CO)O1 (some centres not stated)
- TGI [1]: > 100 µM
- TGI [2]: > 100 µM
- TGI [3]: > 100 µM
- TGI [4]: > 100 µM
- TGI [5]: > 100 µM
- TGI [6]: > 100 µM
- TGI [7]: > 100 µM
- TGI [8]: > 100 µM
- TGI [9]: > 100 µM
- TGI [10]: > 100 µM
- TGI [11]: > 100 µM
- TGI [12]: > 100 µM
- TGI [13]: > 100 µM
- TGI [14]: > 100 µM
- TGI [15]: > 100 µM
- TGI [16]: > 100 µM
- TGI [17]: > 100 µM
- TGI [19]: > 100 µM
- TGI [20]: > 100 µM
- GI50 [21]: 12.3 µM
- TGI [21]: > 100 µM
- TGI [22]: > 100 µM
- TGI [23]: > 100 µM
- TGI [25]: > 100 µM
- GI50 [58]: 52.1 µM
- TGI [58]: > 100 µM
- TGI [27]: > 100 µM
- TGI [28]: > 100 µM
- TGI [29]: > 100 µM
- TGI [30]: > 100 µM
- TGI [31]: > 100 µM
- GI50 [59]: 5.31 µM
- TGI [59]: 36.2 µM
- TGI [32]: > 100 µM
- TGI [33]: > 100 µM
- TGI [34]: > 100 µM
- TGI [35]: > 100 µM
- TGI [36]: > 100 µM
- TGI [37]: > 100 µM
- TGI [38]: > 100 µM
- GI50 [39]: 26.3 µM
- TGI [39]: > 100 µM
- GI50 [40]: 94 µM
- TGI [40]: > 100 µM
- TGI [41]: > 100 µM
- TGI [42]: > 100 µM
- TGI [43]: > 100 µM
- TGI [44]: > 100 µM
- TGI [45]: > 100 µM
- TGI [46]: > 100 µM
- TGI [47]: > 100 µM
- TGI [48]: > 100 µM
- GI50 [49]: 71.9 µM
- TGI [49]: > 100 µM
- TGI [50]: > 100 µM
- TGI [51]: > 100 µM
- TGI [52]: > 100 µM
- TGI [53]: > 100 µM
- TGI [56]: > 100 µM
- TGI [57]: > 100 µM

SMILES: COc1cccc2c1C(=O)c1c(O)c3c(c(O)c1C2=O)C[C@@](O)(C(=O)CO)C[C@@H]3OC1CC(N2CCOCC2)C(O)C(C)O1 (some centres not stated)
- TGI [2]: 0.149 µM
- GI50 [6]: < 0.0131 µM
- TGI [6]: 0.611 µM
- TGI [9]: 2.07 µM
- GI50 [15]: 0.00841 µM
- TGI [15]: 0.0736 µM
- TGI [60]: 0.392 µM
- GI50 [61]: 0.0025 µM
- TGI [62]: 3.37 µM
- TGI [24]: 0.00866 µM and 0.0283 µM and 0.00455 µM
- TGI [63]: 0.228 µM
- TGI [41]: 0.0232 µM and 0.0486 µM and 0.00651 µM
- TGI [64]: 0.195 µM
- TGI [65]: 0.175 µM
- TGI [66]: 0.433 µM
- TGI [67]: 1.06 µM
- TGI [68]: 0.241 µM
- GI50 [54]: 0.00553 µM

SMILES: CSCC[C@H](NC(=O)C(CC(C)C)NC(=O)[C@H](Cc1c[nH]cn1)NC(=O)CNC(=O)[C@@H](NC(=O)[C@@H](C)NC(=O)[C@H](Cc1c[nH]c2ccccc12)NC(=O)[C@H](CCC(N)=O)NC(=O)[C@@H](N)CC(N)=O)C(C)(C)SC)C(N)=O (some centres not stated) (H-NQW[dA][Pen](Me)GH[ξL]M-NH2)
- TGI [11]: > 100 µM
- TGI [12]: > 100 µM
- TGI [69]: > 100 µM
- TGI [14]: > 100 µM
- TGI [61]: > 100 µM
- TGI [24]: > 100 µM
- TGI [58]: > 100 µM
- TGI [28]: > 100 µM
- TGI [29]: > 100 µM
- TGI [44]: > 100 µM
- TGI [50]: > 100 µM
- TGI [51]: > 100 µM
- TGI [70]: > 100 µM
- TGI [53]: > 100 µM
- TGI [55]: > 100 µM

SMILES: CCOP(=O)(OCC)C(C(=O)OC)C(=O)C(=O)Nc1cccc([N+](=O)[O-])c1 (configuration not stated)
- TGI [1]: > 100 µM
- TGI [2]: > 100 µM
- TGI [3]: > 100 µM
- TGI [4]: > 100 µM
- TGI [5]: > 100 µM
- TGI [6]: > 100 µM
- TGI [7]: > 100 µM
- TGI [8]: > 100 µM
- TGI [9]: > 100 µM
- TGI [10]: > 100 µM
- TGI [12]: > 100 µM
- TGI [13]: > 100 µM
- TGI [14]: > 100 µM
- TGI [15]: > 100 µM
- TGI [16]: > 100 µM
- TGI [17]: > 100 µM
- TGI [18]: > 100 µM
- TGI [19]: > 100 µM
- TGI [20]: > 100 µM
- TGI [21]: > 100 µM
- TGI [22]: > 100 µM
- TGI [23]: > 100 µM
- TGI [24]: > 100 µM
- TGI [25]: > 100 µM
- TGI [26]: > 100 µM
- TGI [58]: > 100 µM
- TGI [27]: > 100 µM
- TGI [28]: > 100 µM
- TGI [29]: > 100 µM
- TGI [30]: > 100 µM
- TGI [31]: > 100 µM
- TGI [59]: > 100 µM
- TGI [32]: > 100 µM
- TGI [33]: > 100 µM
- TGI [34]: > 100 µM
- TGI [35]: > 100 µM
- TGI [36]: > 100 µM
- TGI [37]: > 100 µM
- TGI [38]: > 100 µM
- TGI [39]: > 100 µM
- TGI [40]: > 100 µM
- TGI [41]: > 100 µM
- TGI [42]: > 100 µM
- TGI [43]: > 100 µM
- TGI [44]: > 100 µM
- TGI [45]: > 100 µM
- TGI [46]: > 100 µM
- TGI [47]: > 100 µM
- TGI [48]: > 100 µM
- TGI [50]: > 100 µM
- TGI [51]: > 100 µM
- TGI [52]: > 100 µM
- TGI [53]: > 100 µM
- TGI [54]: > 100 µM
- TGI [55]: > 100 µM
- TGI [56]: > 100 µM
- TGI [57]: > 100 µM
